According to paper PMC8453481, “OFF-State-Specific Inhibition of the Proprotein Convertase Furin” (ACS Chemical Biology, 2021):
Like-named read-outs stand apart in the source and are kept apart here.

What was measured:
[1] = ref 29; cited from earlier work
human furin [2] = target: T1, human furin (Homo sapiens, UniProt P09958); assay: Enzyme kinetics with fluorogenic substrate pyr-ERTKR-AMC, furin; format: biochemical; conditions: pH 7.0, 37 °C; for Ki: competitive inhibition model, constant inhibitor concentration, substrate dilution series, triplicate
T1 construct: made in house; host or cells: HEK293S cells, stably transfected (pCDNA3.1(+)), purified from conditioned medium
Method: (§1) HEK293S cells were stably transfected with the coding sequences of human furin,[20] PC5/6 (Arg33-Gly634, UNP[41] Q92824) and PC7 (Pro44-Thr667, UNP[41] Q16549) cloned into the pCDNA3.1(+) vector (ThermoFisher). Cells were grown in DMEM (4.5 g L^–1 glucose, 2 mM L-glutamine, 110 mg l^–1 sodium pyruvate, 3.7 g L^–1 NaHCO3, nonessential amino acids) supplemented with 10% (v/v) FBS. Polyclonal selection of stable cell lines was conducted in the presence of 500 μg mL^–1 G418 (Geneticin). The cells were grown in multilayer flasks (HyperFlask M, Corning) without G418 for large-scale protein expression. The medium of confluent expression cultures was exchanged with DMEM supplemented with 2 mM sodium butyrate as well as with FBS (2% (v/v), furin) or without FBS (PC5/6 and PC7). The medium exchange was repeated five (furin) or two (PC5/6 and PC7) times, and the centrifuged medium (20 min, 5500 g, 4 °C) was stored at −80 °C until further use.
(§2) The purification of human furin from a conditioned medium has been shown previously.[20] […]
(§3) Enzyme kinetic measurements were performed in 100 mM HEPES/NaOH, at pH 7.0, 2 mM CaCl2, and 0.2% (v/v) Triton X 100 with the fluorogenic substrate pyr-ERTKR-7-amino-4-methylcoumarin (Bachem) at 37 °C. The 100 μL reactions were prepared in 96-well black half-area plates (Corning), preincubated for 15 min at 37 °C and measured in a 96-well plate reader (Tecan infinite 200) at excitation and emission wavelengths of 380 and 460 nm. […] The KM values were determined with 1:2 dilution series of the substrate in the absence of an inhibitor (4.7 ± 0.4 μM for furin, 2.5 ± 0.2 μM for PC5/6, and 19.3 ± 0.8 μM for PC7; Figure S7). Enzyme kinetic data were evaluated with GRAPHPAD PRISM (GraphPad Software) using the prebuild “Michaelis–Menten” model to calculate KM and a competitive inhibition model (v = Vmax × S/[S + KM(1 + I/Ki)]; v = reaction velocity, Vmax = maximum velocity, S = substrate concentration, KM = Michaelis–Menten constant, Ki = inhibition constant) for Ki determination. […]

PC5/6 = target: T2, PC5/6 (Homo sapiens, UniProt Q92824); assay: Enzyme kinetics with fluorogenic substrate pyr-ERTKR-AMC, PC5/6; format: biochemical; conditions: pH 7.0, 37 °C; for Ki: competitive inhibition model, constant inhibitor concentration, substrate dilution series, triplicate
T2 construct: PC5/6 (Arg33-Gly634, UNP[41] Q92824); made in house; host or cells: HEK293S cells, stably transfected (pCDNA3.1(+)), purified from conditioned medium
T2 sequence (Q92824 33-634): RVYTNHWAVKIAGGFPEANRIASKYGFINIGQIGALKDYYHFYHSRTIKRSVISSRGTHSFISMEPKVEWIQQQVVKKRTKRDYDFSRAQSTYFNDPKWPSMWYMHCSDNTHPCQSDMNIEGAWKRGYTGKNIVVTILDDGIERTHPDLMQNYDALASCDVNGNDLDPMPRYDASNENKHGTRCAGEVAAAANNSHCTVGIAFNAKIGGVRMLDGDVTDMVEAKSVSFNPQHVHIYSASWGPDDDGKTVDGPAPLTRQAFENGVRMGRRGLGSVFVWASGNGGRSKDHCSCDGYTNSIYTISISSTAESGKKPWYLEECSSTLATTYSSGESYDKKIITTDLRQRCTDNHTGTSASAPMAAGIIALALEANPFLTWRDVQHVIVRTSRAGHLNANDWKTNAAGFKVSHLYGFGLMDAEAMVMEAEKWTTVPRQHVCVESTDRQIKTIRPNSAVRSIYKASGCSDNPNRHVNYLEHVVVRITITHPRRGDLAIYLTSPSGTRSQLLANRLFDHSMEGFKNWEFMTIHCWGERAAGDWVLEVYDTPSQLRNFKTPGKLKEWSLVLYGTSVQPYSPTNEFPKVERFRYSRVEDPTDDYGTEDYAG
Method: as §1, §2, §3

PC7 = target: T3, PC7 (Homo sapiens, UniProt Q16549); assay: Enzyme kinetics with fluorogenic substrate pyr-ERTKR-AMC, PC7; format: biochemical; conditions: for potency loss / increase of the Ki for PC7 compared with furin: Ki PC7 versus Ki furin; for Ki: competitive inhibition model, constant inhibitor concentration, substrate dilution series, triplicate
T3 construct: PC7 (Pro44-Thr667, UNP[41] Q16549); made in house
T3 sequence (Q16549 142-667 limits assumed): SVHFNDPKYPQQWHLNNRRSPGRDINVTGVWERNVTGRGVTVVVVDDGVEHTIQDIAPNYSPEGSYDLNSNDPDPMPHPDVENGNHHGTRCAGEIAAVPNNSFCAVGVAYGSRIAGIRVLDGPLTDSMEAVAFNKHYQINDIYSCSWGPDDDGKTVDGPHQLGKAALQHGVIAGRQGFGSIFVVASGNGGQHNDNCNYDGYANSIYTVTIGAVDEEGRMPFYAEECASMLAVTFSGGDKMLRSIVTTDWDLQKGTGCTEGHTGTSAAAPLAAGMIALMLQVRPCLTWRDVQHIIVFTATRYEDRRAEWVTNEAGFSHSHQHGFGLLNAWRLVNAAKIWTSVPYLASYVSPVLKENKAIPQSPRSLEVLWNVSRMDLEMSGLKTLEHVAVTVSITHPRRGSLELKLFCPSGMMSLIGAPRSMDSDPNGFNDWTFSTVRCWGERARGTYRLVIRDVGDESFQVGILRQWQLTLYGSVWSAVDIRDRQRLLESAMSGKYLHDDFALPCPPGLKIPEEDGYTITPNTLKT
Method: as §1
The purification of human furin from a conditioned medium has been shown previously.[20] PC5/6 and PC7 were purified by immobilized metal affinity chromatography and gel permeation chromatography (GPC), as shown for furin but excluding the inhibitor affinity purification step.[20] PC7 (50 μg mL^–1) was fully activated in 50 mM Tris/HCl, at pH 7.5, 10 mM CaCl2, and 0.15 M NaCl, at pH 7.5, in the presence of 2.0 μg mL^–1 thermolysin for 16 h at 37 °C. To remove thermolysin, the reaction mixture was concentrated in an ultrafiltration device (30 kDa cutoff, amicon, Millipore) and subjected to GPC (both steps at 4 °C). Purified PC5/6 and PC7 were stored at −20 °C.
Enzyme kinetic measurements were performed in 100 mM HEPES/NaOH, at pH 7.0, 2 mM CaCl2, and 0.2% (v/v) Triton X 100 with the fluorogenic substrate pyr-ERTKR-7-amino-4-methylcoumarin (Bachem) at 37 °C. The 100 μL reactions were prepared in 96-well black half-area plates (Corning), preincubated for 15 min at 37 °C and measured in a 96-well plate reader (Tecan infinite 200) at excitation and emission wavelengths of 380 and 460 nm. Because of the autofluorescence of inhibitor 1, the Ki values were determined at constant inhibitor concentrations (1: 20 μM for furin, 15 μM for PC5/6 and 50 μM for PC7; 2: 10 μM for furin, 5 μM for PC5/6 and 15 μM for PC7) and 1:2 dilution series of the substrate (Figure S7). The KM values were determined with 1:2 dilution series of the substrate in the absence of an inhibitor (4.7 ± 0.4 μM for furin, 2.5 ± 0.2 μM for PC5/6, and 19.3 ± 0.8 μM for PC7; Figure S7). Enzyme kinetic data were evaluated with GRAPHPAD PRISM (GraphPad Software) using the prebuild “Michaelis–Menten” model to calculate KM and a competitive inhibition model (v = Vmax × S/[S + KM(1 + I/Ki)]; v = reaction velocity, Vmax = maximum velocity, S = substrate concentration, KM = Michaelis–Menten constant, Ki = inhibition constant) for Ki determination. All measurements were performed in triplicate.

human furin [3] = target: T1, human furin; assay: Crystallography-based inhibitor titration of furin crystals (occupancy refinement); format: binding
Method: Because of the lower number of specific interactions, we assumed that the binding affinity of 2 for the S4 pocket is lower as compared to the S1 pocket. […] The strength of the electron density directly correlates to the occupation of the binding sites with the inhibitor. Indeed, we found the S1 pocket already occupied by 2 at 0.4 mM as indicated by the occupancy of 75% from crystallographic refinement (Table S2). […] The refined occupancy of inhibitor 2 at the S1 pocket at 40 mM concentration was 0.94. It should be noted that water molecules occupy the substrate binding pockets in absence of any ligand.[22] The binding sites of these water molecules overlap with the binding sites of the inhibitors and affect crystallographic occupancy refinement. Thus, the refined occupation should always be considered in context with the electron density (Figure 6C–E). […] We also observed a third binding site of 2 and 3 outside of the substrate binding cleft. Here, two inhibitor molecules are stacked between two arginine residues of a crystal contact. This binding mode is specific for the crystal lattice and thus is not expected to occur in solution (Figure S5B, D).
The optimized soaking solutions contained either 1.0 M NaCl, 200 mM Mes/NaOH, at pH 5.5, 10% (w/v) PEG8000, and 20% (v/v) DMSO or 0.25 M NaCl, 200 mM Mes/NaOH, at pH 5.5, 20% (w/v) PEG8000, and 20% (v/v) DMSO and were supplemented with the specific inhibitors. Inhibitors 1 and 2 were soaked at 20 mM concentration in 1 M NaCl containing soaking solution for 0.5 h. Inhibitor 3 and 4 were soaked in 0.25 M NaCl containing soaking solution for 0.5 h at an inhibitor concentration of 100 mM and 20 mM, respectively. For the inhibitor titration experiments with 2, 40 mM, 4 mM, or 0.4 mM of the inhibitor was soaked for 0.5 h in 0.25 M NaCl-containing soaking solution. Soaked crystals were flash cooled in liquid N2. Diffraction data collection was performed at the synchrotron beamline BL14.2[33] (BESSY-II) of Helmholtz-Zentrum Berlin (HZB). The data were processed using XDS[34] with XDS-APP[35] (v2.0) and the CCP4 program suite[36] (v.7.1.001). COOT[37] (v.0.8.9.2) was used for model building. Refinement was performed in PHENIX[38] (v1.18.2) using the PDB ID 5JXG([22]) as an initial model. One specific Rfree-set (initially generated up to 1.0 Å, ref ([22])) was transferred to the data sets prior refinement start. Geometry restraints of the inhibitors were obtained from the PRODRG server[39] and from the GRADE Web server (http://grade.globalphasing.org). All guanylhydrazones were modeled in the E configuration, which is in agreement with previous studies with model compounds.[40] Electron density omit maps were calculated in PHENIX[38] (v1.18.2). PYMOL was used for molecular graphics (http://www.pymol.org) and structural alignments. In the case of inhibitor titration experiments with 2, the structure was first built and refined for a crystal soaked at 40 mM. This structure was used to calculate refinements with (for occupancy calculation) and without (for omit map calculation) an inhibitor in the model for three additional crystals independently soaked at 40 mM, 4 mM, and 0.4 mM (Table S2) obtaining R/Rfree-values of 17.3/19.0, 17.5/19.1, and 17.7/19.3, respectively. The occupancy refinement yielded consistent B-factors between the three differently soaked structures (Table S2). Structure factors and coordinates of the complexes of furin with inhibitors 1, 2, at 1 M NaCl; 2 at 0.25 M NaCl; and 3 and 4 have been deposited as PDB entries 7O1U, 7O1W, 7O1Y, 7O20, and 7O22, respectively.

furin = conditions: read-out: Ki furin (reported), cited from earlier work
[4] = 0.4 mM inhibitor, 0.25 M NaCl soak
[5] = 0.4 mM inhibitor, 0.25 M NaCl soak, * very weak electron density
[6] = 4 mM inhibitor, 0.25 M NaCl soak
[7] = 40 mM inhibitor, 0.25 M NaCl soak
[8] = absence of inhibitor, 1:2 dilution series of the substrate

T1 sequence (P09958 108-574 limits assumed): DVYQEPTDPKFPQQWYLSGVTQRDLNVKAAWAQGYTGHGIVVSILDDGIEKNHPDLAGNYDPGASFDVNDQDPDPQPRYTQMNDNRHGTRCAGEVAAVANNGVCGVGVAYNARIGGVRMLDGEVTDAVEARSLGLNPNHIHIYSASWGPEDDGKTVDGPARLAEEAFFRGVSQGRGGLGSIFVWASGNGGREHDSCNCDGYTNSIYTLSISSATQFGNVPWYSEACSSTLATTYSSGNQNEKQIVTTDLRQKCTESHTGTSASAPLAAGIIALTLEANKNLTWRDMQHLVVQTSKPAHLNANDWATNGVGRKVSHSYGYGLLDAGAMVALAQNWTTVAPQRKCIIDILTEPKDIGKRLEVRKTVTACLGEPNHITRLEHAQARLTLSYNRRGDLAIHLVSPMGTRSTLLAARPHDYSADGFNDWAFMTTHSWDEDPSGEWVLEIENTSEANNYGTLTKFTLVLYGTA

## N=C(N)N/N=C/c1c(Cl)cccc1Cl [guanabenz]
[1]
  pKa: 8.1

## C/C(=N\NC(=N)N)c1cc(N)cc(/C(C)=N/NC(=N)N)c1 [inhibitor 1]
Human furin [2]
  Ki: 3.3 ± 0.1 µM
PC5/6
  Ki: 3.6 ± 0.2 µM
PC7
  potency loss / increase of the Ki for PC7 compared with furin: ~7 fold
PC7; pH 7.0, 37 °C
  Ki: 22.4 ± 1.9 µM

## N=C(N)N/N=C/c1ccc(/C=N/NC(=N)N)cc1 [inhibitor 2]
Human furin [3]; [4]
  occupancy at S1 pocket: 75%
  refined occupancy, molecule 1, S1 pocket: 0.75
Human furin [3]; [5]
  refined occupancy, molecule 2, S4 pocket: 0.39
  refined occupancy, molecule 3, crystal contact site: 0.35
Human furin [3]; [6]
  occupancy at S4 pocket: 63%
  refined occupancy, molecule 1, S1 pocket: 0.87
  refined occupancy, molecule 2, S4 pocket: 0.63
Human furin [3]; 4 mM inhibitor, 0.25 M NaCl soak, * very weak electron density
  refined occupancy, molecule 3, crystal contact site: 0.38
Human furin [3]; [7]
  occupancy at S4 pocket: 82%
  refined occupancy, molecule 1, S1 pocket: 0.94
  refined occupancy, molecule 2, S4 pocket: 0.82
  refined occupancy, molecule 3, crystal contact site: 0.66
Human furin [3]; estimated from inhibitor titration of crystals, 0.25 M NaCl
  apparent dissociation constant at the S4 binding site: low millimolar range
Human furin [2]
  Ki: 3.1 ± 0.2 µM
PC5/6
  Ki: 1.7 ± 0.2 µM
PC7
  potency loss / increase of the Ki for PC7 compared with furin: ~3 fold
PC7; pH 7.0, 37 °C
  Ki: 10.4 ± 0.7 µM

## C/C(=N\NC(=N)N)c1ccccc1 [inhibitor 3]
furin; ref 26
  Ki: 273 µM

## N=C(N)N/N=C/c1ccccc1OCc1ccc(Cl)cc1 [inhibitor 4]
furin; ref 24
  Ki: 11.8 µM
furin; ref 26
  Ki: 25.3 µM

## pyr-ERTKR-7-amino-4-methylcoumarin [reference compound]
Human furin [2]; [8]
  Km: 4.7 ± 0.4 µM
PC5/6; [8]
  Km: 2.5 ± 0.2 µM
PC7; absence of inhibitor, 1:2 dilution series of the substrate, pH 7.0, 37 °C
  Km: 19.3 ± 0.8 µM
